Reference: PubChem BioAssay (NCI)
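Compound exposure: 48 hours, 5 concentrations, 96-well plates. Definition used: TGI = concentration required for complete inhibition of growth.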 Where a SMILES comes first, the peptide text is derived from it. Bridges are numbered along the chain shown (N, C = ends). [ ]: non-standard residue; d: D form. The star is where a group is joined. Cbz = O=C(OCc1ccccc1)*; Aib = CC(C)(N)C(=O)O; OBn = c1ccc(CO*)cc1; βAla = NCCC(=O)O

Tests used:
Assay in all cases: DTP human tumour cell line panel, 48 h
HOP-92 NSCLC = tested on: HOP-92 NSCLC
OVCAR-4 ovarian = tested on: OVCAR-4 ovarian
SR leukemia = tested on: SR leukemia
MDA-MB-231 breast = tested on: MDA-MB-231 breast
RXF 393 renal = tested on: RXF 393 renal
MCF7 breast = tested on: MCF7 breast
SK-MEL-28 melanoma = tested on: SK-MEL-28 melanoma
UACC-257 melanoma = tested on: UACC-257 melanoma
A498 renal = tested on: A498 renal
M14 melanoma = tested on: M14 melanoma
T-47D breast = tested on: T-47D breast
OVCAR-3 ovarian = tested on: OVCAR-3 ovarian
SNB-75 CNS = tested on: SNB-75 CNS
SF-539 CNS = tested on: SF-539 CNS
HCT-15 colon = tested on: HCT-15 colon
NCI-H23 lung = tested on: NCI-H23 lung
HOP-62 NSCLC = tested on: HOP-62 NSCLC
SN12C renal = tested on: SN12C renal
MALME-3M melanoma = tested on: MALME-3M melanoma

Row | Structure (SMILES) | TGI (HOP-92 NSCLC) [µM] | TGI (OVCAR-4 ovarian) [µM] | TGI (SR leukemia) [µM] | TGI (MDA-MB-231 breast) [µM] | TGI (RXF 393 renal) [µM] | TGI (MCF7 breast) [µM] | TGI (SK-MEL-28 melanoma) [µM] | TGI (UACC-257 melanoma) [µM] | TGI (A498 renal) [µM] | TGI (M14 melanoma) [µM] | TGI (T-47D breast) [µM] | TGI (OVCAR-3 ovarian) [µM] | TGI (SNB-75 CNS) [µM] | TGI (SF-539 CNS) [µM] | TGI (HCT-15 colon) [µM] | TGI (NCI-H23 lung) [µM] | TGI (HOP-62 NSCLC) [µM] | TGI (SN12C renal) [µM] | TGI (MALME-3M melanoma) [µM]
1 | O=C1C(Br)=CC2(C=C1Br)CCN=c1c(O)c3c(c(O)c12)=NC=N3 | 24.8 | 27.8 | > 100 | 29.4 | 29.9 | 28.5 | 29.9 | 28 | 33.2 | 30.6 | 33.7 | 29.1 | 30.5 | 32.1 | 29.1 | 26.9 | 31.1 | – | –
2 | Clc1cccc(Cl)c1C1SCC2=Nc3ccccc3CN21 (stereo not given) | > 100 | > 100 | > 100 | > 100 | 56.6 | 52.7 | 91.2 | > 100 | > 100 | 48.1 | 85.1 | 29.5 | > 100 | 32.9 | > 100 | 34.7 | 48.9 | > 100 | –
3 | CCOC(=O)N/N=C(/N)Cc1ccccc1 | > 100 | – | > 100 | > 100 | > 100 | > 100 | > 100 | > 100 | > 100 | > 100 | > 100 | > 100 | > 100 | > 100 | > 100 | – | > 100 | > 100 | > 100
4 | Cc1c(Cc2ccccc2)n(COCCCO)c(=O)[nH]c1=O | > 100 | > 100 | – | > 100 | > 100 | > 100 | > 100 | > 100 | > 100 | > 100 | > 100 | > 100 | > 100 | > 100 | > 100 | > 100 | > 100 | > 100 | > 100
5 | Cc1nc(N)c(N2CCNCC2)c(=O)[nH]1 | > 100 | – | > 100 | > 100 | – | > 100 | > 100 | > 100 | > 100 | > 100 | > 100 | > 100 | > 100 | > 100 | > 100 | > 100 | > 100 | > 100 | > 100
6 | O=C1NNC(=O)C2C3c4ccccc4C(c4ccccc43)C12 (stereo not given) | – | > 100 | > 100 | > 100 | > 100 | > 100 | > 100 | > 100 | > 100 | > 100 | > 100 | > 100 | > 100 | > 100 | > 100 | > 100 | > 100 | > 100 | > 100
7 | CC1CN=C(Nc2ccc(S(N)(=O)=O)cc2)S1 (stereo not given) | > 100 | > 100 | > 100 | > 100 | – | > 100 | > 100 | > 100 | > 100 | > 100 | > 100 | > 100 | > 100 | > 100 | > 100 | > 100 | > 100 | > 100 | > 100
8 | Clc1ccc2c(NCCCCN=Cc3ccccc3)ccnc2c1 | 26.3 | 28.1 | – | 29 | 16.6 | 28.6 | 29 | 26 | 7.26 | 27.4 | 45.7 | 41.9 | 24.1 | 24.7 | 33.1 | 25.1 | 23.7 | 21.5 | 27.5
9 | CCC1c2[nH]c3ccccc3c2C[C@H]2C(=O)NC(CCC(=O)OC(C)(C)C)C(=O)N12 (stereo not given in full) | 94.9 | > 100 | > 100 | > 100 | > 100 | > 100 | > 100 | > 100 | > 100 | > 100 | > 100 | > 100 | – | – | > 100 | > 100 | > 100 | > 100 | > 100
10 | Cc1[nH]c(=O)[nH]c(=S)c1C(=O)NC(C)(CO)CO | > 100 | > 100 | – | > 100 | > 100 | > 100 | > 100 | > 100 | > 100 | > 100 | > 100 | > 100 | > 100 | > 100 | > 100 | > 100 | > 100 | > 100 | > 100
11 | CN1CCC(OC(=O)Oc2ccccc2)(c2ccccc2)CC1 | – | 48.4 | 42.6 | 29.1 | > 100 | 35.1 | 41.7 | 34 | 56.4 | 28.2 | 52.1 | > 100 | 63.3 | 26.5 | 36.8 | 35.7 | 40.6 | 43.8 | 32.5
12 | CNC(=O)N1CCN(C(=O)NC)CCN(C(=O)NC)CC1 | > 100 | – | > 100 | > 100 | > 100 | > 100 | > 100 | > 100 | > 100 | > 100 | > 100 | – | > 100 | – | > 100 | > 100 | > 100 | > 100 | > 100
13 | CCOc1cc(NC(C)=O)ccc1C(=O)NN1C(=O)C(Oc2ccccc2)C1c1ccc(O)c(OC)c1 (stereo not given) | > 100 | > 100 | > 100 | > 100 | > 100 | > 100 | > 100 | > 100 | – | > 100 | 77.9 | > 100 | > 100 | > 100 | > 100 | > 100 | > 100 | 99.4 | –
14 | O=C1SCC(O)=C1/C=N/Nc1nc2ccccc2o1 | 81.7 | > 100 | > 100 | > 100 | 70.7 | > 100 | > 100 | 72.5 | > 100 | 57.5 | 54.7 | 65.5 | – | 40.8 | > 100 | 86.3 | > 100 | 96 | > 100
15 | CCOC(=O)NC(Nc1ccc(S(=O)(=O)Nc2ncccn2)cc1)(C(=O)OCC)C(F)(F)F (stereo not given) | > 100 | > 100 | > 100 | > 100 | – | > 100 | > 100 | > 100 | – | > 100 | > 100 | > 100 | > 100 | > 100 | > 100 | > 100 | > 100 | > 100 | > 100
16 | CC1(C)NC(=O)C(NC(=O)C(CC(=O)OCc2ccccc2)NC(=O)OCc2ccccc2)CCCCNC(=O)CCNC1=O (stereo not given) (Cbz-D(OBn)K[Aib][βAla]; lactam 2-C; configuration not given here) | > 100 | > 100 | – | > 100 | > 100 | > 100 | > 100 | – | > 100 | > 100 | > 100 | > 100 | > 100 | > 100 | > 100 | > 100 | > 100 | > 100 | > 100
17 | O=P(O)(O)CN1CCN(CP(=O)(O)O)CCN(CP(=O)(O)O)CCN(CP(=O)(O)O)CC1 | > 100 | > 100 | 95.9 | > 100 | > 100 | > 100 | – | > 100 | > 100 | > 100 | > 100 | > 100 | > 100 | > 100 | 77.7 | > 100 | > 100 | > 100 | –
18 | CC(=O)NNc1nc(C)c(C(/C=C/c2cccc([N+](=O)[O-])c2)=N/NC(=S)NN)s1 | > 100 | > 100 | – | > 100 | > 100 | > 100 | > 100 | > 100 | > 100 | > 100 | > 100 | > 100 | > 100 | > 100 | > 100 | > 100 | > 100 | > 100 | > 100
19 | CC(=O)NCc1nc(C#N)c(N)o1 | > 100 | > 100 | – | > 100 | > 100 | > 100 | > 100 | > 100 | > 100 | > 100 | > 100 | > 100 | > 100 | > 100 | > 100 | > 100 | > 100 | > 100 | > 100
20 | Cc1cc(C)cc(Nc2nnc3n2S(=O)(=O)c2cc(C#N)c(Cl)cc2S3)c1 | – | 22.1 | 3.42 | 12.8 | 3.26 | 6.56 | 14.2 | 3.32 | 31.4 | 28.2 | 31.6 | 3.34 | 7.56 | 3.97 | 8.16 | 4.35 | 9.25 | 7.15 | 2.92
21 | CC1=C2C3=C(C)C(=O)C(C)(C)CC[C@@]3(C)[C@]2(C)CCC(C)(C)C1=O | – | > 100 | > 100 | > 100 | > 100 | > 100 | – | > 100 | > 100 | > 100 | > 100 | > 100 | > 100 | > 100 | > 100 | > 100 | > 100 | > 100 | > 100
22 | CCN(CC)Cc1cc(Nc2ccnc3ccc4c(nnn4C)c23)ccc1O | – | 32.6 | 18.6 | 44.6 | 30.6 | 16.7 | 17.8 | 28.8 | – | 28.7 | 63.5 | 39.9 | 19.9 | 18.4 | 13.5 | 25.6 | 19 | 31.8 | 42.1
23 | Cc1ccc(S(=O)(=O)OC2C3OC(C)(C)OC3OC2C(c2cc(O)c3c(c2O)C(=O)c2ccccc2C3=O)c2cc(O)c3c(c2O)C(=O)c2ccccc2C3=O)cc1 (stereo not given) | > 10 | > 10 | > 10 | > 10 | – | > 10 | > 10 | > 10 | > 10 | > 10 | > 10 | > 10 | > 10 | > 10 | > 10 | > 10 | > 10 | > 10 | > 10
24 | CCOC(=O)C(=C(SC)SC)c1nn2c(=O)cc(C)nc2s1 | 34.4 | > 100 | 61.3 | 47.8 | 47.5 | 35.5 | 31.3 | 45.2 | – | 29.4 | 34.1 | 35 | 89.6 | 32.7 | 31.8 | 65.9 | > 100 | > 100 | 32.3
25 | CCCN=C(NC(=O)c1ccc(Cl)cc1)SC | – | > 100 | > 100 | > 100 | > 100 | > 100 | > 100 | > 100 | 99.8 | > 100 | > 100 | > 100 | 97.2 | > 100 | > 100 | > 100 | > 100 | > 100 | > 100
26 | O=C(CC(=O)N(C(=O)c1ccccc1)c1ccc(Cl)cc1)N/N=C\c1cc(N=Nc2ccccc2Cl)ccc1O | 59.6 | – | 35.8 | > 100 | > 100 | > 100 | > 100 | – | 85.6 | > 100 | > 100 | > 100 | 36.6 | > 100 | > 100 | > 100 | > 100 | > 100 | > 100
